This is an account of results in ChEMBL document CHEMBL1143017, “Structural assignment of poecillastrins B and C, macrolide lactams from the deep-water Caribbean sponge Poecillastra species” (J Nat Prod, 2007).

The experiment is described as follows: Cytotoxicity against human LOX cells. It is filed as cell-based.

Molecules are shown by their SMILES.

`COC1/C=C/C=C/CC/C=C/C=C/C(=O)NC(C(O)C(=O)O)C(=O)OC(C(NC(=O)C(C)C(O)CCC(C)C(O)/C(C)=C/C(C)(C)C(O)C(CC(C)C)NC(=O)/C=C/C(C)(C)C(=O)C(C)C(O)C(C)C)C(C)O)C(C)C(O)C/C=C(\C)C(O)C(C)/C=C(\C)C(O)C(C)C(O)CC2CC(C)CC1O2` (configuration not stated) [POECILLASTRIN B]: the IC50 (as a rule, the point on the concentration scale where inhibition reaches its midpoint) was under 1 mg/L.
The same measure for `COC1/C=C/C=C/CC/C=C/C=C/C(=O)NC(C(O)C(=O)O)C(=O)OC(C(NC(=O)C(C)C(O)CCC(C)C(O)/C(C)=C/C(C)C(O)C(CC(C)C)NC(=O)/C=C/C(C)(C)C(=O)C(C)C(O)C(C)C)C(C)O)C(C)C(O)C/C=C(\C)C(O)C(C)/C=C(\C)C(O)C(C)C(O)CC2CC(C)CC1O2` (configuration not stated) [POECILLASTRIN C]: under 1 mg/L.
